target: T1, hERG (KCNH2) (Homo sapiens, UniProt Q12809); assay: Ratio of Ki for human ERG channel expressed in HEK293 cell membrane after 1 hr by scintillation counting analysis to IC50 for human ERG channel expressed in HEK293 cells after 15 mins by whole-cell patch clamp technique; assay type: cell membranes; details: not given
T1 sequence (Q12809 whole entry): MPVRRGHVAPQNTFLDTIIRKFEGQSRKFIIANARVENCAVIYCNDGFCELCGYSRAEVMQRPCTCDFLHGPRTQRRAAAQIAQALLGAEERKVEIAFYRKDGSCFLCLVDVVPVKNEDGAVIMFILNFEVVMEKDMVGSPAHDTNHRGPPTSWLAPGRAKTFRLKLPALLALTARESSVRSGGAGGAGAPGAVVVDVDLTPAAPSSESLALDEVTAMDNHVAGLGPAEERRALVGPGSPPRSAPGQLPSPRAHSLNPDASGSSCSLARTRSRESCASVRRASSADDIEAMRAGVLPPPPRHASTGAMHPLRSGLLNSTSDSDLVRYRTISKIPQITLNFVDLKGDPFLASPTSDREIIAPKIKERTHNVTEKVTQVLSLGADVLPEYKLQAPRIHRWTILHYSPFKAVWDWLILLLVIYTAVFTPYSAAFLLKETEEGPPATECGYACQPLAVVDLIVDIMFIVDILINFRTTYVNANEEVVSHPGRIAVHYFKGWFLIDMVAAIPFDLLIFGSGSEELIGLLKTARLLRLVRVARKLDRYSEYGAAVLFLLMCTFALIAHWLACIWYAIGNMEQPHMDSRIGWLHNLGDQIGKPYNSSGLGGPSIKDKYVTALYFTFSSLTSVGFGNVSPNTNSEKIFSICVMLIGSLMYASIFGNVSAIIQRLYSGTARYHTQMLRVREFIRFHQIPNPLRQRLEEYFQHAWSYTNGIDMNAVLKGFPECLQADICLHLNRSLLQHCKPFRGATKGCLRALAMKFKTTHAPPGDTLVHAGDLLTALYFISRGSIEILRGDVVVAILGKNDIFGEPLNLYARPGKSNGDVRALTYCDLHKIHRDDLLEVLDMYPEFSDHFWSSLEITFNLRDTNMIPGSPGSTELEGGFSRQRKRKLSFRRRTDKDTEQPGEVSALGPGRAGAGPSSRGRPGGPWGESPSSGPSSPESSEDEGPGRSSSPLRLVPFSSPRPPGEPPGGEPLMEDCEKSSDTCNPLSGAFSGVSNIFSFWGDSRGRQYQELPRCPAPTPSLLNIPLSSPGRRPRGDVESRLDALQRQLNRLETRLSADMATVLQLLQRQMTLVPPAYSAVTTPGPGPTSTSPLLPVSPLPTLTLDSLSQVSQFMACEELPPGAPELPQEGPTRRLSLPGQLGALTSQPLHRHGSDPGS

CCCCCCCN(CC)CC#CCCc1ccc(Cl)cc1 gave a selectivity ratio of 2.

target: T1, hERG (KCNH2); assay: Displacement of [3H]astemizole from human ERG channel expressed in HEK293 cell membrane at 10 uM after 1 hr by scintillation counting analysis; details: membranes of HEK293 cells that express hERG, probe [3H]astemizole

Point of comparison: CCCCN(CC)CC#CCCc1ccccc1, inhibition at 1 h, 10 µM 48%. Against it:
- CCCCN(CC)CC#CC#Cc1ccc(C)cc1 — lower, 47%

target: T2, Voltage-gated inwardly rectifying potassium channel KCNH2 (Homo sapiens, UniProt Q12809); assay: Inhibition of human ERG channel expressed in HEK293 cells after 15 mins by whole-cell patch clamp technique; assay type: cell-based; details: not given
T2 sequence (Q12809 whole entry): as above

With CCCCCCCN(CC)CC#CCCc1ccc(Cl)cc1 the IC50 was 53 nM.

target: T2, Voltage-gated inwardly rectifying potassium channel KCNH2; assay: Displacement of [3H]astemizole from human ERG channel expressed in HEK293 cell membrane after 1 hr by scintillation counting analysis; details: not given

Point of comparison: CCCCCCCN(CC)C/C=C/c1ccc(Cl)cc1, IC50 243 nM. Against it:
- CCCCN(CC)CC#CCOCc1ccc(Cl)cc1 — 30-fold higher, 7370 nM
- CCCCCCCN(CC)C/C=C/CCc1ccc(Cl)cc1 — within 1.5-fold, 238 nM
- CCCCCCCN1CCC(C(=O)c2ccccc2)CC1 — 2-fold lower, 124 nM
- CCCCCCCN(CC)CC#Cc1ccc(Cl)cc1 — 17-fold higher, 4080 nM
- CCCCCCC[N+](CC)(CC)CC#Cc1ccc(Cl)cc1 — 6.1-fold lower, 40 nM
- CCCCCCCN(CC)CC#CCCc1ccccc1 — 18-fold higher, 4390 nM
- CCCCCCCN(CC)CC#CCCc1ccc(Cl)cc1 — 3.1-fold higher, 765 nM
- CCCCN(CC)CC#CCCc1ccc(C)cc1 — 23-fold higher, 5590 nM
- CCCCN(CC)C/C=C/c1ccc(Cl)cc1 — 4.3-fold higher, 1050 nM
- CCCCCCCN(CC)CC#CCOC(c1ccccc1)c1ccccc1 — 4-fold higher, 970 nM

For CCCCCCCN(CC)CC#CCCc1ccc(Cl)cc1, the Ki was 148 nM.
